{
  "source": "paper PMC8633584",
  "about": "“Patient mutations in human ATP:cob(I)alamin adenosyltransferase differentially affect its catalytic versus chaperone functions” (The Journal of Biological Chemistry, 2021)",
  "key": {"R190H ATR [1]": {"target": "T1, R190H ATR (Homo sapiens, UniProt Q96EY8, R190H)", "T1 construct": "The expression construct for recombinant human full-length and ΔN18 ATR in a pET-28b vector; His-tag (thrombin-cleavable) (N, cleaved yes); made in house; host or cells: E. coli BL21 (DE3)", "T1 sequence (Q96EY8 38-250 R190H limits assumed)": "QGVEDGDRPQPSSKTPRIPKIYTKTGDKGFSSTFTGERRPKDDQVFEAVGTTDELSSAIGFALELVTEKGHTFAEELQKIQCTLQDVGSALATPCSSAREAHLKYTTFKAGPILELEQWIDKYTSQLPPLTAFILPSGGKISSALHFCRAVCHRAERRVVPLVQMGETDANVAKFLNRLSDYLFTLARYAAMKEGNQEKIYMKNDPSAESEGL", "experiment": "Cob(II)alamin binding to ATR, UV-visible titration", "conditions": "1 mM ATP, anaerobic, buffer A", "protocol": "(§1) Cob(II)alamin binding to ATR was determined by the titrations performed in the anaerobic chamber (<0.2 ppm O2 levels). The increasing concentrations of WT or mutant ATR were added to 30 μM cob(II)alamin and 1 mM ATP in buffer A. The concentration of bound cob(II)alamin was determined using Δε474nm = 5.1 cm^−1 mM^−1. The change in absorbance at 464 nm, corresponding to the base-off ATR-bound cob(II)alamin was plotted against ATR concentration, and the data were analyzed using Equation 1, as described above."}, "R190H ATR [2]": {"target": "T1, R190H ATR", "experiment": "EPR spectroscopy of cob(II)alamin with ATR and ATP", "type": "binding", "conditions": "R190H ATR 500 μM trimer, cob(II)alamin 300 μM, 5 mM ATP, 100 K", "protocol": "(§2) EPR spectra were recorded on a Bruker EMX 300 equipped with a Bruker 4201 cavity and a Varian liquid nitrogen cryostat. The temperature was controlled by an Oxford Instruments ITC4 temperature controller. The samples were prepared inside an anaerobic chamber (O2 < 0.3 ppm) and contained 300 μM cob(II)alamin, 5 mM ATP and WT ATR (200 μM trimer) or 500 μM (trimer) E193K, R190C or R190H ATR in 50 mM Hepes pH 7.5, 150 mM KCl, 2 mM MgCl2, 2 mM TCEP, and 10% glycerol. The following instrument settings were employed: microwave frequency, 9.27 GHz; power, 2.0 mW; modulation amplitude, 1.0 mT; modulation frequency, 100 kHz; temperature, 100 K. Five scans were acquired for each sample. A buffer spectrum was subtracted from the sample spectrum. The EPR simulations were performed using the EasySpin program ([36])."}, "E193K ATR [3]": {"target": "T2, E193K ATR (Homo sapiens, UniProt Q96EY8, E193K)", "T2 sequence (Q96EY8 38-250 E193K limits assumed)": "T1 sequence (Q96EY8 38-250 R190H limits assumed) with H153R, E156K", "experiment": "Cob(II)alamin binding, separation of unbound ligand with 10 kDa cut-off filter", "parameters": "WT and the R190C variants of ΔN18-ATR and full-length E193K ATR were purified; His-tag (thrombin-cleavable) (N, cleaved yes); made in house; host or cells: E. coli BL21 (DE3)", "protocol": "Although we were unable to determine the KM for cob(II)alamin because of technical limitations of the steady-state assay, the KD for this substrate was determined. In the presence of ATP, cob(II)alamin binds to ATR in a four-coordinate base-off conformation ([17]), which is signaled by a blue shift in the absorption maximum from 474 to 464 nm and an increase in absorption intensity (Fig. 2C). […] In contrast, spectral changes in cob(II)alamin were not observed with E193K ATR (Fig. 2D), indicating either greatly weakened affinity or the presence of bound five-coordinate cob(II)alamin. […] Although some cob(II)alamin (18 μM) was present in the filtrate, the remainder was bound to ATR (Fig. 2D)."}, "E193K ATR [4]": {"target": "T2, E193K ATR", "experiment": "EPR spectroscopy of cob(II)alamin with ATR and ATP", "type": "binding", "parameters": "WT and the R190C variants of ΔN18-ATR and full-length E193K ATR were purified; His-tag (thrombin-cleavable) (N, cleaved yes); made in house; host or cells: E. coli BL21 (DE3)", "conditions": "E193K ATR 500 μM trimer, cob(II)alamin 300 μM, 5 mM ATP, 100 K", "protocol": "as §2"}, "R190C ATR [5]": {"target": "T3, R190C ATR (Homo sapiens, UniProt Q96EY8, R190C)", "T3 sequence (Q96EY8 38-250 R190C limits assumed)": "T1 sequence (Q96EY8 38-250 R190H limits assumed) with H153C", "experiment": "Cob(II)alamin binding to ATR, UV-visible titration", "parameters": "The expression construct for recombinant human full-length and ΔN18 ATR in a pET-28b vector; His-tag (thrombin-cleavable) (N, cleaved yes); made in house; host or cells: E. coli BL21 (DE3)", "conditions": "1 mM ATP, anaerobic, buffer A", "protocol": "as §1"}, "WT ATR": {"target": "T4, WT ATR (Homo sapiens, UniProt Q96EY8)", "T4 sequence (Q96EY8 38-250 limits assumed)": "T1 sequence (Q96EY8 38-250 R190H limits assumed) with H153R", "experiment": "Cob(II)alamin binding to ATR, UV-visible titration", "parameters": "The expression construct for recombinant human full-length and ΔN18 ATR in a pET-28b vector; His-tag (thrombin-cleavable) (N, cleaved yes); made in house; host or cells: E. coli BL21 (DE3)", "conditions": "1 mM ATP, anaerobic, buffer A", "protocol": "as §1"}, "R190C ATR [6]": {"target": "T3, R190C ATR", "experiment": "EPR spectroscopy of cob(II)alamin with ATR and ATP", "type": "binding", "parameters": "The expression construct for recombinant human full-length and ΔN18 ATR in a pET-28b vector; His-tag (thrombin-cleavable) (N, cleaved yes); made in house; host or cells: E. coli BL21 (DE3)", "conditions": "R190C ATR 500 μM trimer, cob(II)alamin 300 μM, 5 mM ATP, 100 K", "protocol": "as §2"}},
  "note": "Residue numbers refer to the chain shown, from its start. “And” between values parts separate entries of the source, which are not always exact repeats. Equal values may be shown once.",
  "data": [
    {"molecule": "C/C1=C2/[N-][C@H]([C@H](CC(N)=O)[C@@]2(C)CCC(=O)NC[C@@H](C)OP(=O)([O-])O[C@H]2[C@@H](O)[C@@H](n3cnc4cc(C)c(C)cc43)O[C@@H]2CO)[C@]2(C)N=C(/C(C)=C3N=C(/C=C4N=C1[C@@H](CCC(N)=O)C\\4(C)C)[C@@H](CCC(N)=O)[C@]\\3(C)CC(N)=O)[C@@H](CCC(N)=O)[C@]2(C)CC(N)=O.[Co+2]", "note": "[cob(II)alamin]", "values": [
      {"measurement": "Kd", "setting": "R190H ATR [1]", "result": "38.5 ± 16.5", "unit": "µM"},
      {"measurement": "four-coordinate base-off cob(II)alamin, share of EPR spectrum", "setting": "R190H ATR [2]", "result": 75, "unit": "%"},
      {"measurement": "unbound five-coordinate base-on cob(II)alamin, share of EPR spectrum", "setting": "R190H ATR [2]", "result": 25, "unit": "%"},
      {"measurement": "cob(II)alamin in the filtrate (unbound)", "setting": "E193K ATR [3]; E193K ATR 1.5 mM", "result": 18, "unit": "%"},
      {"measurement": "cob(II)alamin present in the filtrate (unbound)", "setting": "E193K ATR [3]; cob(II)alamin 100 μM, E193K ATR 500 μM trimer, ATP 2 mM", "result": 18, "unit": "µM"},
      {"measurement": "five-coordinate base-off cob(II)alamin, share of EPR spectrum", "setting": "E193K ATR [4]", "result": "76% and ~80%"},
      {"measurement": "free base-on cob(II)alamin, share of EPR spectrum", "setting": "E193K ATR [4]", "result": "24% and 20%"},
      {"measurement": "Kd", "setting": "R190C ATR [5]", "result": "46 ± 10", "unit": "µM"},
      {"measurement": "Kd", "setting": "WT ATR", "result": "0.08 ± 0.01", "unit": "µM"},
      {"measurement": "four-coordinate base-off cob(II)alamin, share of EPR spectrum", "setting": "R190C ATR [6]", "result": 75, "unit": "%"},
      {"measurement": "unbound five-coordinate base-on cob(II)alamin, share of EPR spectrum", "setting": "R190C ATR [6]", "result": 25, "unit": "%"}
    ]}
  ]
}
